Read-outs that look alike come from different tables or passages of the source.
How the values were obtained:
Format in all cases: cell-based
NCI-H23 = test: NCI cell line panel; conditions: Homo sapiens, Non-Small Cell Lung Cancer, read-out: Log10 GI50 (converted)
Excerpt: (§1) Only two hundred years ago, many diseases ravaged humankind. Many of these diseases now have been controlled or eradicated. In the development of the means to treat or control these diseases, work with the appropriate common experimental animals was of critical importance. With the various types of cancers, and with the HIV virus, such work is presently ongoing. The research for the treatment of various types of cancer is coordinated in the United States by the National Cancer Institute (NCI). NCI, as a government entity, has been charged with assisting anti-cancer research. To establish whether a substance has anti-cancer activity, NCI has established a variety of protocols, one of which involves testing the candidate substance against a cell line panel containing 60 human tumor cell lines. This protocol has been verified and is generally accepted throughout the scientific community. This protocol and the established statistical means of evaluating the results obtained therefrom have been fully described in the literature. See Principles & Practice of Oncology PPO Updates, Volume 3, Number 10, October 1989, by Michael R. Boyd, M.D., Ph.D., for an in depth description of the test protocol. The statistical analysis is explained in "Display and Analysis of Patterns of Differential Activity of Drugs Against Human Tumor Cell Lines: Development of Means Graph and COMPARE Algorithm" Journal of the National Cancer Institute Reports Vol. 81, No. 14, Pg. 1088, Jul. 14, 1989, by K. D. Paull et al. Both of these references are incorporated herein by this reference thereto. The effectiveness and validity of the NCI in vitro protocol continues to be verified.

OVCAR-4 = test: NCI cell line panel; conditions: Homo sapiens, Ovarian Cancer, read-out: Log10 GI50 (converted)
Excerpt: as §1

SR = test: NCI cell line panel; conditions: Homo sapiens, Leukemia, read-out: Log10 GI50 (converted)
Excerpt: as §1

HCC-2998 = test: NCI cell line panel; conditions: Homo sapiens, Colon Cancer, read-out: Log10 GI50 (converted)
Excerpt: as §1

IGROV1 = test: NCI cell line panel; conditions: Homo sapiens, IGROV-1, Ovarian Cancer; for GI50: read-out: Log10 GI50 (converted); for IC (TGI): read-out: Log10 TGI (converted)
Excerpt: as §1

ACHN = test: NCI cell line panel; conditions: Homo sapiens, Renal Cancer; for GI50: read-out: Log10 GI50 (converted)
Excerpt: as §1

SNB-19 = test: NCI cell line panel; conditions: Homo sapiens; for IC (TGI): read-out: Log10 TGI (converted)
Excerpt: as §1

PC-3 = test: NCI cell line panel; conditions: Homo sapiens, Prostate Cancer; for GI50: read-out: Log10 GI50 (converted); for IC (TGI): read-out: Log10 TGI (converted)
Excerpt: as §1

SF-295 = test: NCI cell line panel; conditions: Homo sapiens
Excerpt: as §1

TK-10 = test: NCI cell line panel; conditions: Homo sapiens
Excerpt: as §1

UO-31 = test: NCI cell line panel; conditions: Homo sapiens
Excerpt: as §1

OVCAR-5 = test: NCI cell line panel; conditions: Homo sapiens
Excerpt: as §1

CAKI-1 = test: NCI cell line panel; conditions: Homo sapiens, Renal Cancer, read-out: Log10 GI50 (converted)
Excerpt: as §1

T-47D = test: NCI cell line panel; conditions: Homo sapiens, T47D, Breast Cancer
Excerpt: as §1

SNB-75 = test: NCI cell line panel; conditions: Homo sapiens, CNS Cancer, read-out: Log10 GI50 (converted)
Excerpt: as §1

RPMI-8226 = test: NCI cell line panel; conditions: Homo sapiens, Leukemia, read-out: Log10 GI50 (converted)
Excerpt: as §1

EKVX = test: NCI cell line panel; conditions: Homo sapiens; for GI50: read-out: Log10 GI50 (converted)
Excerpt: as §1

SF-268 = test: NCI cell line panel; conditions: Homo sapiens, CNS Cancer; for GI50: read-out: Log10 GI50 (converted); for IC (TGI): read-out: Log10 TGI (converted)
Excerpt: as §1

MOLT-4 = test: NCI cell line panel; conditions: Homo sapiens, Leukemia, read-out: Log10 GI50 (converted)
Excerpt: as §1

DU-145 = test: NCI cell line panel; conditions: Homo sapiens, Prostate Cancer, read-out: Log10 GI50 (converted)
Excerpt: as §1

SW-620 = test: NCI cell line panel; conditions: Homo sapiens, SW-620, read-out: Log10 GI50 (converted)
Excerpt: as §1

HT29 = test: NCI cell line panel; conditions: Homo sapiens, HT-29; Colon Cancer; read-out: Log10 GI50 (converted)
Excerpt: as §1

UACC-257 = test: NCI cell line panel; conditions: Homo sapiens, Melanoma, read-out: Log10 GI50 (converted)
Excerpt: as §1

MDA-N = test: NCI cell line panel; conditions: Homo sapiens, Breast Cancer, read-out: Log10 GI50 (converted)
Excerpt: as §1

UACC-62 = test: NCI cell line panel; conditions: Homo sapiens, UACC-62, read-out: Log10 GI50 (converted)
Excerpt: as §1

NCI-H460 = test: NCI cell line panel; conditions: Homo sapiens
Excerpt: as §1

NCI-H522 = test: NCI cell line panel; conditions: Homo sapiens, Non-Small Cell Lung Cancer, read-out: Log10 GI50 (converted)
Excerpt: as §1

HCT-116 = test: NCI cell line panel; conditions: Homo sapiens, Colon Cancer, read-out: Log10 GI50 (converted)
Excerpt: as §1

KM12 = test: NCI cell line panel; conditions: Homo sapiens, KM12, read-out: Log10 GI50 (converted)
Excerpt: as §1

Melanoma = test: NCI cell line panel, melanoma lines, value not assignable to a single line; conditions: Homo sapiens, 7 values printed for 8 cell lines, in printed order, read-out: Log10 TGI (converted)
Excerpt: as §1, with “The statistical analysis is explained in "Display and Analysis of Patterns of Differential Activity of Drugs Against Human Tumor Cell Lines: Development of Means Graph and COMPARE Algorithm" Journal of the National Cancer Institute Reports Vol. 81, No. 14, Pg. 1088, Jul. 14, 1989, by K. D. Paull et al. Both of these references are incorporated herein by this reference thereto. The effectiveness and validity of the NCI in vitro protocol continues to be verified.” left out

[1] = read-out: Log10 TGI (converted)

For `C=C(Cl)/C=C/C(O)CC(=C)CC1OC2C(C)C(OC(=O)CC3CC(O)CC4(CC(C)(O)CC(C=C5COC(C(C)C(=O)CC6CC(OC)CC7(CC(O)CC(/C=C\CCCC8OC(O)(CC(O)C8C)C2O)O7)O6)C5C)O4)O3)C1O` (centres unmarked) [spongistatin 5], the GI50 (NCI-H23) was 0.0347 nM, the GI50 (OVCAR-4) was 14.1 nM and the GI50 (SR) was 0.012 nM. For the same compound, the GI50 (HCC-2998) was 0.0631 nM, the GI50 (IGROV1) was 0.141 nM and the IC (TGI) (IGROV1) was 95.5 nM. It also gave a GI50 (ACHN) of 0.562 nM, a GI50 (SNB-19; SNB-19, read-out: Log10 GI50 (converted)) of 0.407 nM and an IC (TGI) (SNB-19; SNB-19, CNS Cancer) of 100 nM. For the same compound, the GI50 (PC-3) was 0.0151 nM, the IC (TGI) (PC-3) was 100 nM and the GI50 (SF-295; SF-295, CNS Cancer, read-out: Log10 GI50 (converted)) was 0.011 nM. For the same compound, the GI50 (TK-10; TK-10, Renal Cancer, read-out: Log10 GI50 (converted)) was 36.3 nM, the GI50 (UO-31; UO-31, read-out: Log10 GI50 (converted)) was 0.427 nM and the GI50 (OVCAR-5; OVCAR-5, read-out: Log10 GI50 (converted)) was 4.07 nM. For the same compound, the GI50 (CAKI-1) was 0.0575 nM, the GI50 (T-47D; read-out: Log10 GI50 (converted)) was 100 nM and the GI50 (SNB-75) was 0.012 nM. For the same compound, the GI50 (RPMI-8226) was 0.0129 nM, the GI50 (EKVX) was 0.182 nM and the GI50 (SF-268) was 0.151 nM. The IC (TGI) (SF-268) was 100 nM, the GI50 (MOLT-4) was 0.0372 nM and the GI50 (DU-145) was 0.024 nM.

Work on `C=C/C=C/C(O)CC(=C)CC1OC2C(C)C(OC(=O)CC3CC(O)CC4(CC(C)(O)CC(C=C5COC(C(C)C(=O)CC6CC(OC)CC7(CC(O)CC(/C=C\CCCC8OC(O)(CC(O)C8C)C2O)O7)O6)C5C)O4)O3)C1O` (centres unmarked) [spongistatin 7] yielded a GI50 (NCI-H23) of 0.708 nM, a GI50 (OVCAR-4) of 24 nM and a GI50 (SW-620) of 0.389 nM. For the same compound, the GI50 (SR) was 0.0912 nM, the GI50 (HCC-2998) was 1.41 nM and the GI50 (HT29) was 1.51 nM. For the same compound, the GI50 (IGROV1) was 0.617 nM, the IC (TGI) (IGROV1) was 67.6 nM and the GI50 (ACHN) was 10 nM. For the same compound, the IC (TGI) (ACHN; [1]) was 100 nM, the GI50 (SNB-19; SNB-19, CNS Cancer, read-out: Log10 GI50 (converted)) was 8.32 nM and the IC (TGI) (SNB-19; SNB-19, CNS Cancer) was 100 nM. The GI50 (UACC-257) was 14.1 nM, the GI50 (PC-3) was 0.372 nM and the IC (TGI) (PC-3) was 52.5 nM. It also gave a GI50 (SF-295; SF-295, read-out: Log10 GI50 (converted)) of 0.407 nM, a GI50 (MDA-N) of 0.0151 nM and a GI50 (UACC-62) of 0.309 nM. The GI50 (TK-10; TK-10, read-out: Log10 GI50 (converted)) was 56.2 nM, the IC (TGI) (TK-10; TK-10, Renal Cancer, read-out: Log10 TGI (converted)) was 100 nM and the GI50 (UO-31; UO-31, Renal Cancer, read-out: Log10 GI50 (converted)) was 24 nM. For the same compound, the GI50 (OVCAR-5; OVCAR-5, Ovarian Cancer, read-out: Log10 GI50 (converted)) was 20.9 nM, the GI50 (NCI-H460; NCI-H460, read-out: Log10 GI50 (converted)) was 2.09 nM and the IC (TGI) (NCI-H460; NCI-H460, Non-Small Cell Lung Cancer, read-out: Log10 TGI (converted)) was 100 nM. It also gave a GI50 (CAKI-1) of 12 nM, an IC (TGI) (T-47D; [1]) of 100 nM and a GI50 (NCI-H522) of 0.0282 nM. For the same compound, the GI50 (SNB-75) was 0.372 nM, the GI50 (HCT-116) was 0.288 nM and the GI50 (KM12) was 0.219 nM. It also gave a GI50 (RPMI-8226) of 0.708 nM, a GI50 (EKVX; Non-Small Cell Lung Cancer) of 41.7 nM and an IC (TGI) (EKVX; Non-Small Cell Lung Cancer, read-out: Log10 TGI (converted)) of 100 nM. The GI50 (SF-268) was 6.31 nM, the IC (TGI) (SF-268) was 100 nM and the GI50 (MOLT-4) was 0.575 nM. For the same compound, the GI50 (DU-145) was 1.58 nM and the IC (TGI) (Melanoma) was 46.8 nM.

Source: patent US5393897A, “Isolation and structure of spongistatins 5,7,8 and 9” (Arizona Board of Regents acting on behalf of Arizona State …, priority 1993, dated 1995)
